Assay results published in patent US20220000786A1, “PHARMACEUTICAL PREPARATION” (KOWA COMPANY, LTD., priority 2018, published 2022).

Assay: Examination on stability: storage at 40° C. and 75% RH for 1 month, state of sample and composition changes
Type: physicochemical
Procedure: Samples 1-1 to 1-4 as shown below were prepared and stored at 40° C. and […] relative humidity (RH) for 1 month.
Pemafibrate as it was placed in a glass vessel with a lid opened, and labeled as Sample 1-1.
Aminoalkyl methacrylate copolymer E (EUDRAGIT EPO: Evonick Rohm GmbH) as it was placed in a glass vessel with a lid opened, and labeled as Sample 1-2.
Aminoalkyl methacrylate copolymer E (EUDRAGIT EPO: Evonick Rohm GmbH) was mixed with pemafibrate in a ratio of 1 part by mass to 1 part by mass of pemafibrate to obtain a mixture. The mixture was placed in a glass vessel with a lid opened, and labeled as Sample 1-3.
Aminoalkyl methacrylate copolymer E (EUDRAGIT EPO: Evonick Röhm GmbH) was mixed with pemafibrate in a ratio of 1 part by mass to 1 part by mass of pemafibrate to obtain a mixture. The mixture was taken in an amount of 0.25 g into a glass bottle (a bottle No. 2K, manufactured by ISOYA GLASS INDUSTRY) and closed with a lid, and labeled as Sample 1-4.

Change of state / presence or absence of composition changes after storage (1 month, start of storage compared with 1 month): maintained the same state | State of mixture, 1 month later (after storage for 1 month, glass vessel with lid opened (1-1 to 1-3) or closed glass bottle (1-4)): White powder | State of mixture, immediately after the start of storage (start of storage, glass vessel with lid opened (1-1 to 1-3) or closed glass bottle (1-4)): White powder
SMILES: CC[C@@H](Oc1cccc(CN(CCCOc2ccc(OC)cc2)c2nc3ccccc3o2)c1)C(=O)O [Sample 1-1, (2R)-2-[3-([1,3-Benzoxazol-2-yl[3-(4-methoxyphenoxy)propyl]amino]methyl)phenoxy]butanoic acid]
